Results published in patent publication EP4717275A1, “ANTI-LUNG CANCER COMBINED DRUG AND USE THEREOF” (Gunagdong Yinzhu Pharmaceutical Technology Co., Ltd, priority 2023, dated 2024).
Read-outs that look alike come from different tables or passages of the source.

Experiments:
[1] = format: in vivo; settings: dead/total animals at Day 21; NCI-H1975 study; PO, QD×21
Procedure: (§1) BALB/c Nude mice, female, 8-10 weeks old, 18-20g. The variation of the body weight is ±20% around average body weight. 80 mice were inoculated and 60 mice were grouped.
(§2) The grouping day was designated as Day 0, and administration commenced according to animal body weight.
Animal body weight and tumor volume were measured twice weekly throughout the experiment. Tumor length and width were measured using a digital caliper, with tumor volume estimated from these measurements.
Clinical observations were recorded daily to assess overall health status, weight abnormalities, behavioral changes, and other treatment-related adverse reactions.
In accordance with animal welfare regulations, animals meeting any of the following criteria during the study were removed from the experimental group and euthanized: 1. Body weight loss exceeding 20% compared to Day 0 (BWL ≥ 20%); 2. Severe adverse reactions such as blindness or paralysis; 3. Tumor volume exceeding 2000 mm^3; 4.
The animal body weight change rate (%BWC) is calculated as: (BWt - BW0) / BW0 × 100%, where BWt is the animal body weight at each measurement and BW0 is the animal body weight at grouping.
According to China's NMPA Technical Guidance Principles for Non-clinical Studies of Cytotoxic Antineoplastic Drugs (November 2006), %T/CRTV ≤ 40% and statistically significant P < 0.05 indicate efficacy. Drug-related animal mortality exceeding 20% indicates severe toxicity at that dose.
All experimental data in this study are expressed as Mean ± SEM.

[2] = tested on: human lung cancer NCI-H1975 xenografts; assay: Therapeutic effect in vivo on NCI-H1975 xenografts in nude mice; set-up: species or system BALB/c Nude mice; settings: PO; for Relative tumor proliferation rate(%) Day 21: %T/CRTV; for Tumor growth inhibition rate(%) Day 21: %TGITV from tumor volume vs control; for Tumor inhibition rate(%) Day 21: %TGITW from tumor weight vs control; for Tumor volume (mm^3,Mean±SEM) Day 21: QD×21, dose per group; for Relative tumor volume Day 21: RTV = Vt/V0, Mean ± SEM
Procedure: BALB/c Nude mice, female, 8-10 weeks old, 18-20g. […] Table 2 Experimental design of therapeutic effect of the drugs in vivo […] NCI-H1975 cells were cultured in RPMI 1640 medium supplemented with 10% FBS and maintained in a 37°C, 5% CO2 humidified incubator. Log-phase NCI-H1975 cells were harvested, resuspended in RPMI 1640 basal medium containing 50% Matrigel, and adjusted to a concentration of 2 × 10^7 cells/mL. Under aseptic conditions, 0.1 mL of the cell suspension was injected subcutaneously into the right flank of mice at a concentration of 2 × 10^6 cells/0.1 mL/mouse. […] The grouping day was designated as Day 0, and administration commenced according to animal body weight. […] Animal body weight and tumor volume were measured twice weekly throughout the experiment. Tumor length and width were measured using a digital caliper, with tumor volume estimated from these measurements. After the final weighing on Day 21, remaining animals were euthanized with CO2. Tumors were weighed, photographed, and the experiment concluded. […] Tumor growth inhibition rate (%TGITV) is calculated as: […] Relative Tumor Volume (RTV) is calculated as Vt/V0, where V0 is the tumor volume at grouping and Vt is the tumor volume at each measurement. Relative Tumor Growth Rate (%T/CRTV) is calculated as TRTV/CRTV × 100%, where TRTV is the RTV of the treatment group and CRTV is the RTV of the negative control group. Tumor growth inhibition rate (%TGITW) is calculated as: ([…] × 100%, where TWc is the average tumor weight in the negative control group and TWT is the average tumor weight in the treatment group. […] Drug-related animal mortality exceeding 20% indicates severe toxicity at that dose. All experimental data in this study are expressed as Mean ± SEM. The evaluation of the combination index (CI) of drugs relies on the following equation: […]), wherein E(A+B) is the inhibition rate of combination drug, EA and EB is the inhibition rate of drug A and drug B respectively. E(A+B) in the equation represents 'measured synergistic effect' and (EA+EB-EA×EB) is 'expected synergistic effect'. CI=0.85-1.15 indicates a mere addition of the effect of two drugs, >1.15 indicates enhancement (or synergy), and <0.85 indicates antagonism. • Combination index of tumor growth inhibition: CAI, 40mg/kg + AZD9291, 1mg/kg: 1.27; […] CAI, 40mg/kg + AZD9291, 1mg/kg: 1.20; […]

[3] = Animal body weight, fatality and toxicity observation in the NCI-H2228 xenograft study; format: in vivo, BALB/c Nude mice; settings: dead/total animals at Day 21; NCI-H2228 study; PO, QD×21
Text: as §1, §2
The same as the therapeutic effect evaluation experiments for Examples 1-2 and Comparative Examples 1-3.

[4] = QD×21, listed as Comparative Example 2
[5] = QD×21, listed as Comparative Example 3

NC(=O)c1nnn(Cc2cc(Cl)c(C(=O)c3ccc(Cl)cc3)c(Cl)c2)c1N [CAI, 5-Amino-1-[3,5-dichloro-4-(4-chlorobenzoyl chloride)benzyl]-1H-1,2,3-triazole-4-benzamide]
Fatality [1]: 0/10 (Day 21)
Relative tumor proliferation rate(%) Day 21 [2, 4]: 93.04%
Relative tumor proliferation rate(%) Day 21 [2, 5]: 93.23%
Tumor growth inhibition rate(%) Day 21 ([2]; QD×21): 12.99%
Tumor growth inhibition rate(%) Day 21 [2, 5]: 12.33%
Tumor inhibition rate(%) Day 21 [2, 4]: 15.76%
Tumor inhibition rate(%) Day 21 [2, 5]: 7.06%
Tumor volume (mm^3,Mean±SEM) Day 21 ([2]; listed as Comparative Example 2): 1536.24 ±222.57 mm^3
Tumor volume (mm^3,Mean±SEM) Day 21 ([2]; listed as Comparative Example 3): 1547.91 ±221.67 mm^3
Tumor weight (g,Mean±SEM) Day 21 [2, 4]: 1.384 ± 0.266 g
Tumor weight (g,Mean±SEM) Day 21 [2, 5]: 1.527 ± 0.257 g
Relative tumor volume Day 21 [2, 4]: 10.03 +1.27
Relative tumor volume Day 21 [2, 5]: 10.05 ±1.30
Fatality [3]: 0/10 (Day 21)
